Results as given in patent US20220226281A1, “COMPOUNDS FOR USE IN ANTI-CANCER IMMUNOTHERAPY” (priority 2019, published 2022).

System: splenocytes from LCMV-CL13 infected IFN-γ-YFP mice
Type: cell-based

CCCCCCCCCCCCCC(=O)O[C@@H]1[C@@H](C)[C@@]2(O)C(C=C(CO)C[C@]3(O)C(=O)C(C)=C[C@@H]23)[C@@H]2C(C)(C)[C@]12OC(C)=O (some centres unmarked) [12-O-tetradecanoylphorbol-13-acetate]
Mean Z-score at 1 μM (reversal of T-cell exhaustion): 17.8

C/C=C(/C)C(=O)O[C@H]1C(C)=C[C@]23C(=O)[C@@H](C=C(CO)[C@@H](O)[C@]12O)[C@H]1[C@@H](C[C@H]3C)C1(C)C [Ingenol-3-angelate]
Mean Z-score at 1 μM (reversal of T-cell exhaustion): 30.9

CC(C)[C@H]1C(=O)N[C@H](CO)Cc2cc(NC(=O)/C=C/C=C/c3ccc(C(F)(F)F)cc3)ccc2N1C [TPPB]
Mean Z-score at 1 μM (reversal of T-cell exhaustion): 4.6

CC(=O)O[C@@]12[C@H](O)[C@@H](C)[C@@]3(O)C(C=C(CO)C[C@]4(O)C(=O)C(C)=C[C@@H]34)[C@@H]1C2(C)C (some centres unmarked) [Phorbol-13-acetate]
Mean Z-score at 1 μM (reversal of T-cell exhaustion): 0.9

O=S(=O)(NCCCCCCc1ccccc1)c1cccc2c(Cl)cccc12 [5-chloro-N-(6-phenylhexyl)naphthalene-1-sulfonamide]
Mean Z-score at 1 μM (reversal of T-cell exhaustion): 11.1

CC(=O)O[C@@]12C[C@@H](C)[C@@]3(O)[C@@H](C=C(CO)C[C@]4(O)C(=O)C(C)=C[C@@H]34)[C@@H]1C2(C)C [prostratin]
Mean Z-score at 1 μM (reversal of T-cell exhaustion): 48.9

CO[C@@H](CC[C@H](C)[C@H]1O[C@@]23C[C@H](OC(=O)C2=C(O)[C@H](C)CC3(C)C)[C@@H]1C)c1cccc(O)c1 [Neo-debromoaplysiatoxin B]
Mean Z-score at 1 μM (reversal of T-cell exhaustion): 3.6

CC1=C[C@]23C(=O)[C@@H](C=C(CO)[C@@H](O)[C@]2(O)[C@H]1O)[C@H]1[C@@H](C[C@H]3C)C1(C)C [Ingenol]
Mean Z-score at 1 μM (reversal of T-cell exhaustion): 0.6
